Test results: US6555139B2, “Preparation of micron-size pharmaceutical particles by microfluidization” (Wockhardt Europe Limited, priority 1999, dated 2003)
Read-outs that look alike come from different tables or passages of the source. Each block holds one compound with its values, some of them ahead of it.

Experiments:
[1] = Particle size distribution (PSD) of suspensions before/after microfluidization (Mastersizer); format: physicochemical; conditions: 5,000 psi, 3 passes
Description: The Microfluidizer M-210 EH operates at higher pressures up to 35000 psi. The process stream enters the inlet reservoir. An air-powered intensifier pumping system accelerates the process stream, propelling into a processing zone called the interaction chamber. This chamber consists of microchannels, where the process stream separates into two. It changes direction and collides into a single stream again. […] Then product is accelerated to a high velocity and is subjected to shear, impact and cavitation. This causes particles and droplets to reduce in size as small as sub-micron depending upon the processing pressure and number of cycles applied. […] After completion of the microfluidization step, the sized particles in suspension pass through pipe 18 out of the system, with a heat exchanger 20 shown in a preferred system to enable on-line drying of the micro-suspension resulting from the microfluidization. The microfluidization process is most conveniently practiced with operating pressures between 2000 pounds per square inch (psi) and 20,000 psi to provide resulting particle sizes of the dimensions most appropriate for pharmaceutical dosing. The process will often progress with increasingly higher operating pressures in each subsequent pass, such as using from 2,000 to 6,000 psi in a first pass, 5,000 to 11,000 psi in a second pass, and from 9,000 to 20,000 psi in a third pass (if needed). Each pass will generally be higher than a previous pass, or operating pressures may remain constant or decrease, depending upon the specific results desired in the processing.

[2] = cited from earlier work
[3] = micronized drug + Klucel LF + micronized β-cyclodextrin + Cremophor RH-40 + water
[4] = micronized drug + Klucel LF + unmicronized β-cyclodextrin + Cremophor RH-40 + water

solubility (pH 1): 0.001% | solubility (pH 5): 0.01% | PSD of Output Material After Processing, d (0.9) [1, 3]: 12.15 μm
Structure (SMILES): CCc1cccc2c3c([nH]c12)C(CC)(CC(=O)O)OCC3 (stereo not drawn) [Etodolac, etodolac]

PSD of Output Material After Processing, d (0.5) [1, 3]: 5.72 μm | PSD of Output Material After Processing, d (0.9) [1, 3]: 12.06 μm | PSD of Output Material After Processing, d (0.5) [1, 4]: 3.84 μm | PSD of Output Material After Processing, d (0.9) [1, 4]: 7.52 μm
Structure (SMILES): Cc1cnc(C(=O)NCCc2ccc(S(=O)(=O)NC(=O)NC3CCCCC3)cc2)cn1 [Glipizide, glipizide]

Structure (SMILES): CCOC(=O)C1=C(C)NC(C)=C(C(=O)OC)C1c1cccc(Cl)c1Cl (stereo not drawn) [Felodipine, felodipine]
absorption from the colon [2]: impaired absorption from the colon

Structure (SMILES): CCOC(=O)C1=C(C)NC(C)=C(C(=O)OC)C1c1cccc([N+](=O)[O-])c1 (stereo not drawn) [nitrendipine]
absorption from the colon [2]: impaired absorption from the colon
